Measured values published in ChEMBL document CHEMBL1158191, “Two new aromatic constitutents from the rootwood of Aeschynomene mimosifolia” (1996).
Converted amounts (≈) assume the structure as drawn. The source made the active and inactive calls. No cut-off for these calls is given here.

Legend:
[1] = Induction of DNA scission activity in at 25 ug/mL
KB = test: Cytotoxicity against human KB cells; format: functional
LNCaP = test: Cytotoxicity against human LNCAP cells; format: functional, cell-based
ZR-75-1 = test: Cytotoxicity against human ZR-75-1 cells; format: functional, cell-based
U-373MG ATCC = test: Cytotoxicity against human U373 cells; format: functional, cell-based
Lu1 = test: Cytotoxicity against human Lu1 cells; format: functional, cell-based
BC1 = test: Cytotoxicity against human BC1 cells; format: functional, cell-based

In the case of `CO[C@H]1CC(=O)C=CC[C@]1(O)/C=C\c1ccccc1` [MIMOSIFOLENONE], the Activity [1] is reported as “inactive” and the EC50 (KB; read-out: ED50 (the source's name)) is reported as 3.3 µg/mL (≈ 12.8 µM).
In the case of `C=C[C@H](c1ccccc1)c1cc(OC)c(O)cc1OC`, the Activity (LNCaP) is reported as “inactive”, the Activity (ZR-75-1) is reported as “inactive” and the Activity (U-373MG ATCC) is reported as “inactive”. For the same molecule, the Activity (Lu1) was “inactive”, the Activity (KB) was “inactive” and the Activity (BC1) was “inactive”.
